Data from US7157452B2, “Substituted 4,9-dihydrocyclopenta{imn}phenanthridine-5-ones derivatives thereof and their uses” (MGI GP, Inc., priority 2001, dated 2007).

Columns and labels:
PARP = details: read-out: IC50 for inhibiting PARP; reported by Suto et al.; cited from earlier work
male Long-Evans rats = assay: Focal cerebral ischemia (right distal MCA cauterization with temporary bilateral CCA occlusion); type: in vivo; details: 24 h, mean±SD
Method: Focal cerebral ischemia is produced by cauterization of the right distal MCA (middle cerebral artery) with bilateral temporary common carotid artery occlusion in male Long-Evans rats for 90 minutes. All procedures performed on the animals are approved by the University Institutional Animal Care and Use Committee of the University of Pennsylvania. A total of 42 rats (weights: 230–340 g) obtained from Charles River were used in this study. The animals fasted overnight with free access to water prior to the surgical procedure.
Two hours prior to MCA occlusion, varying amounts (control, n=14; 5 mg/kg, n=7; 10 mg/kg, n=7; 20 mg/kg, n=7; and 40 mg/kg, n=7) of the compound, 3,4-dihydro-5-[4-(1-piperidinyl)-butoxy]-1(2H)-isoquinolinone (“DPQ”) were dissolved in dimethyl sulfoxide (DMSO) using a sonicator. A volume of 1.28 ml/kg of the resulting solution was injected intraperitoneally into […].
The rats were then anesthetized with halothane (4% for induction and 0.8%–1.2% for the surgical procedure) in a mixture of 70% nitrous oxide and 30% oxygen. The body temperature was monitored by a rectal probe and maintained at 37.5±0.5° C. with a heating blanket regulated by a homeothermic blanket control unit (Harvard Apparatus Limited, Kent, U.K.). A catheter (PE-50) was placed into the tail artery, and arterial pressure was continuously monitored and recorded on a Grass polygraph recorder (Model 7D, Grass Instruments, Quincy, Mass.). Samples for blood gas analysis (arterial pH, PaO2 and PaCO2) were also talcen from the tail artery catheter and measure with a blood gas analyzer (ABL 30, Radiometer, Copenhagen, Denmark). Arterial blood samples were obtained 30 minutes after MCA occlusion.
The head of the animal was positioned in a stereotaxic frame, and a right parietal incision between the right lateral canthus and the external auditory meatus was made. Using a dental drill constantly cooled with saline, a 3 mm burr hole was prepared over the cortex supplied by the right MCA, 4 mm lateral to the sagittal suture and 5 mm caudal to the coronal suture. The dura mater and a thin inner bone layer were kept, care being taken to position the probe over a tissue area devoid of large blood vessels. The flow probe (tip diameter of 1 mm fiber separation of 0.23 mm) was lowered to the bottom of the cranial burr hole using a micromanipulator. The probe was held stationary by a probe holder secured to the skull with dental cement. The microvascular blood flow in the right parietal cortex was continuously monitored with a laser Doppler flowmeter (FloLab, Moor, Devon, U.K., and Periflux 4001, Perimed, Stockholm, Sweden). […]

O=C1NCCc2c(OCCCCN3CCCCC3)cccc21 [DPQ, 3,4-dihydro-5-[4-(1-piperidinyl)-butoxy]-1(2H)-isoquinolinone]
IC50 (PARP): 40 nM | damaged volume (infarct volume) (male Long-Evans rats; 5 mg/kg i.p. 2 h before and 2 h after MCA occlusion, control 165.2±34.0, p<0.001): 106.7±23.2 mm^3 | damaged volume (infarct volume) (male Long-Evans rats; 10 mg/kg i.p. 2 h before and 2 h after MCA occlusion, control 165.2±34.0, p<0.001): 76.4±16.3 mm^3 | damaged volume (infarct volume) (male Long-Evans rats; 20 mg/kg i.p. 2 h before and 2 h after MCA occlusion, control 165.2±34.0, p<0.01): 110.2±42.0 mm^3 | damaged volume (infarct volume) (male Long-Evans rats; 40 mg/kg i.p. 2 h before and 2 h after MCA occlusion, no significant difference from control 165.2±34.0): 135.6±44.8 mm^3
